The values below come from patent publication US20060128729A1, “Novel bicyclic heterocyclic compounds, process for their preparation and compositions containing them” (priority 2004, published 2006).

In general, melting point refers to the temperature, or range, at which the solid turns liquid. By inhibition is commonly meant the share of the control response that was lost under treatment. The low end stands for little suppression, the high end for strong suppression.

pIC50: −log10 of the molar value. Structures can show the parent of a compound that is named as a salt. Where two headings read alike, the source gives them in different places. Some results are limits rather than exact numbers.

In data set [1] the test system is MCP-1 (monocyte chemoattractant protein 1). Nature of the data set: MCP-1 ELISA on supernatants of stimulated human aortic endothelial cells. The format is cell-based. The conditions noted are these: HAECs treated with TNFα (0.05 ng/ml) or glycated human serum albumin (300 μg/ml) for 18-24 h, read-out: IC50 in MCP-1 enzyme-linked immunosorbent assay. As to the method:
(§1) For inflammation assays, human aortic endothelial cells (HAECS) in 96 well plates were washed once with treatment medium (basal medium containing 1% FBS). Cells were treated with an inflammatory agent such as TNFα (0.05 ng/ml) or glycated human serum albumin (US Biologicals) as source of advanced glycation end products (AGEs) (300 μg/ml) for 18-24 h in the presence or absence of specified amount of compound. Cell supernatants were collected and used for the estimation of MCP-1 (monocyte chemoattractant protein 1) or IL-6 (interleukin-6) by ELISA. Cell layers were washed and used for determining the levels of vascular cell adhesion molecule-1 (VCAM-1).
MCP-1 ELISA was carried out using Quantikine Human MCP-1 kit as described by the manufacturer (R&D Systems, Inc.). Mouse anti-human MCP-1 was used as the capture antibody and HRP (horse radish peroxidase)-conjugated goat anti-human MCP-1 antibody was used as detection antibody. Culture medium was incubated with the capture antibody (in 96-well plate) for 2 h at room temperature. Wells were washed three times with wash buffer (0.05% Tween-20 in PBS) followed by incubation with detection antibody for 2 h at room temperature. Color development was read at […] in a microplate reader.
(An ELISA detects its analyte on a solid surface through an enzyme-linked reagent.)

In data set [2] the test system is human aortic smooth muscle cells. Nature of the data set: Smooth muscle cell proliferation assay (radiolabeled thymidine incorporation or CellTiter AQ). Format: cell-based. The conditions noted are these: human aortic SMC; for pIC50: 24 h post treatment in serum-containing growth medium, read-out: Activity: concentration giving 50% inhibition of smooth muscle cell proliferation; for inhibition at 1 µM: 24 h post treatment. As to the method: Primary cultures of human aortic smooth muscle cells were obtained from Clonetics. SMC were initially grown in T-75 flasks prior to seeding in 96 well plates. The 96-well plates were seeded with 4000 cells/well. The following day cells were washed with serum free medium and left in serum free media for 24 hours for serum starvation. The next day cells received growth medium containing serum with or without compound. 24 h post treatment cell proliferation was assayed either assessing the incorporation of radiolabeled thymidine to DNA or using a non-radioactive cell proliferation kit from Promega (CellTiter AQ).
On the technique in general: Incorporation of labelled thymidine or its analogues reports DNA synthesis.

The subject of data set [3] is VCAM-1 (vascular cell adhesion molecule-1). Nature of the data set: VCAM-1 ELISA on cell layers of stimulated human aortic endothelial cells. The format is cell-based. The conditions noted are these: HAECs treated with TNFα (0.05 ng/ml) or glycated human serum albumin (300 μg/ml) for 18-24 h, read-out: IC50 in VCAM-1 enzyme-linked immunosorbent assay. As to the method: as §1
The cells were fixed cells with 100% methanol for 10 min at room temperature. The methanol was removed and the plate was air-dried. 100 ul of 1:1000 diluted primary antibody (polyclonal goat anti-human VCAM-1—R&D Systems #BBA19) was then added and incubated for 2 h at 37 C. The cells were washed with PBS and 100 ul of 1:5000 dilution of secondary antibody (rabbit anti-goat IgG-HRP—Zymed #81-1620) was added and incubated for 1 h at room temperature. Cells were washed and 100 ul of substrate solution (R&D Systems# DY999) was added and incubated for 20 min in the dark at room temp. 50 μl of stop solution (2N sulfuric acid) was added to the wells and absorbency at 450 nm was noted.

As to `COc1ccc(Nc2nc(-c3ccccc3)nc3c(C)nn(C)c23)cc1Cl` [E 13, (3-chloro-4-methoxy-phenyl)-(1,3-dimethyl-5-phenyl-1H-pyrazolo[4,3-d]pyrimidin-7-yl)-amine hydrochloride], the pIC50 in data set [1] (Homo sapiens, Endothelial cell) is 5.82; in data set [2] it was 6.42.
For `COc1ccc(Nc2nc(-c3ccccc3)nc3c(C)nn(C)c23)cc1F` [E 14, (1,3-dimethyl-5-phenyl-1H-pyrazolo[4,3-d]pyrimidin-7-yl)-(3-fluoro-4-methoxy-phenyl)-amine hydrochloride], in that order: 5.40 and 6.37.
On to `COc1ccc(Nc2nc(-c3ccc(F)cc3)nc3c(C)nn(C)c23)cc1F.Cl` [E 16, (3-fluoro-4-methoxy-phenyl)-[5-(4-fluoro-phenyl)-1,3-dimethyl-1H-pyrazolo[4,3-d]pyrimidin-7-yl]-amine hydrochloride], for which the melting point came to 262 °C. In data set [2], this compound returned an inhibition at 1 µM of 100%.
For `COc1ccc(Nc2nc(-c3ccc(F)cc3)nc3c(C)nn(C)c23)cc1Cl.Cl` [E 17, (3-chloro-4-methoxy-phenyl)-[5-(4-fluoro-phenyl)-1,3-dimethyl-1H-pyrazolo[4,3-d]pyrimidin-7-yl]-amine hydrochloride], the melting point is over 240 °C. The same compound registered an inhibition at 1 µM in data set [2] of 100%.
`Cc1nn(C)c2c(Nc3ccc4c(c3)OCO4)nc(-c3ccc(F)cc3)nc12.Cl` [E 19, benzo[1,3]dioxol-5-yl-[5-(4-fluoro-phenyl)-1,3-dimethyl-1H-pyrazolo[4,3-d]pyrimidin-7-yl]-amine hydrochloride] had a melting point of 230 to 232 °C. Further, in data set [2], the pIC50 is 6.35.
As to `COc1ccc(Nc2nc(-c3cccs3)nc3c(C)nn(C)c23)cc1F.Cl` [E 30, (1,3-dimethyl-5-thiophen-2-yl-1H-pyrazolo[4,3-d]pyrimidin-7-yl)-(3-fluoro-4-methoxy-phenyl)-amine hydrochloride], the melting point was 236 to 238 °C. Further, in data set [2], the pIC50 is 5.84.
Compound `COc1ccc(Nc2nc(-c3cccs3)nc3c(C)nn(C)c23)cc1Cl.Cl` [E 32, (3-chloro-4-methoxy-phenyl)-(1,3-dimethyl-5-thiophen-2-yl-1H-pyrazolo[4,3-d]pyrimidin-7-yl)-amine hydrochloride] returned a melting point of over 240 °C. The pIC50 in data set [2] is 6.03.
For the compound `Cc1nn(C)c2c(Nc3ccc4c(c3)OCO4)nc(-c3cccs3)nc12` [E 33, benzo[1,3]dioxol-5-yl-(1,3-dimethyl-5-thiophen-2-yl-1H-pyrazolo[4,3-d]pyrimidin-7-yl)-amine hydrochloride], the pIC50 in data set [2] was 6.27.
As for `CCCc1nn(C)c2c(Nc3ccc(OC(F)(F)F)cc3)nc(-c3ccc(F)cc3)nc12.Cl` [E 37, [5-(4-fluoro-phenyl)-1-methyl-3-propyl-1H-pyrazolo[4,3-d]pyrimidin-7-yl]-(4-trifluoromethoxy-phenyl)-amine hydrochloride], the melting point lay in the range of 230 to 232 °C. The pIC50 in data set [2] was 6.30.
For `Cc1nn(C)c2c(Nc3ccc(OC(F)(F)F)cc3)nc(-c3ccccc3)nc12.Cl` [E 38, (1,3-dimethyl-5-phenyl-1H-pyrazolo[4,3-d]pyrimidin-7-yl)-(4-trifluoromethoxy-phenyl)-amine hydrochloride], in that order: 174 to 176 °C and 6.64.
For `Cc1nn(C)c2c(Nc3ccc(C(F)(F)F)cc3)nc(-c3ccc(F)cc3)nc12.Cl` [E 39, [5-(4-fluoro-phenyl)-1,3-dimethyl-1H-pyrazolo[4,3-d]pyrimidin-7-yl]-(4-trifluoromethyl-phenyl)-amine hydrochloride], in that order: 250 to 252 °C and 6.48.
Regarding `Cc1nn(C)c2c(Nc3ccc(S(=O)(=O)N(C)C)cc3)nc(-c3ccc(F)cc3)nc12.Cl` [E 43, 4-[5-(4-fluoro-phenyl)-1,3-dimethyl-1H-pyrazolo[4,3-d]pyrimidin-7-ylamino]-N,N-dimethyl-benzenesulfonamide hydrochloride], the melting point was in the range of 254 to 256 °C. Further, the pIC50 in data set [2] was 6.03.
Consider `Cc1nn(C)c2c(Nc3ccc(S(N)(=O)=O)cc3)nc(-c3ccccc3)nc12` [E 44, 4-(1,3-dimethyl-5-phenyl-1H-pyrazolo[4,3-d]pyrimidin-7-ylamino)-benzenesulfonamide hydrochloride], for which the pIC50 in data set [2] is 5.60.
Regarding `Cc1nn(C)c2c(Nc3cccc(C(N)=O)c3)nc(-c3ccc(F)cc3)nc12.Cl` [E 49, 3-[5-(4-fluoro-phenyl)-1,3-dimethyl-1H-pyrazolo[4,3-d]pyrimidin-7-ylamino]-benzamide hydrochloride], the melting point was 258 to 260 °C. Moreover, the pIC50 in data set [1] (Homo sapiens, Endothelial cell) was 6.47. Further, the pIC50 in data set [3] (Homo sapiens, Endothelial cell) was 6.21.
Compound `CNC(=O)c1cccc(Nc2nc(-c3ccc(F)cc3)nc3c(C)nn(C)c23)c1.Cl` [E 50, 3-[5-(4-fluoro-phenyl)-1,3-dimethyl-1H-pyrazolo[4,3-d]pyrimidin-7-ylamino]-N-methyl-benzamide hydrochloride] returned a melting point of 272 to 274 °C. Besides, in data set [1] (Homo sapiens, Endothelial cell), the pIC50 was 6.38. Further, the pIC50 in data set [3] (Homo sapiens, Endothelial cell) is 5.77.
As to `CCCc1nn(C)c2c(Nc3ccc4c(c3)OCO4)nc(-c3cccs3)nc12` [E 52, benzo[1,3]dioxol-5-yl-(1-methyl-3-propyl-5-thiophen-2-yl-1H-pyrazolo[4,3-d]pyrimidin-7-yl)-amine hydrochloride], the pIC50 in data set [1] (Homo sapiens, Endothelial cell) was 5.06; in data set [3] (Homo sapiens, Endothelial cell), 4.96; in data set [2], 6.30.
For `COc1ccc(Nc2nc(-c3ccc(F)cc3)cc3c2c(C)nn3C)cc1Cl` [E 72, (3-chloro-4-methoxy-phenyl)-[6-(4-fluoro-phenyl)-1,3-dimethyl-1H-pyrazolo[4,3-c]pyridin-4-yl]-amine hydrochloride] the same measures were 5.42, 4.85 and 5.89.
Turning to `CCCc1nn(C)c2c(Nc3ccc(OC)c(F)c3)nc(-c3ccc(F)cc3)nc12` [E 86, (3-fluoro-4-methoxy-phenyl)-[5-(4-fluoro-phenyl)-1-methyl-3-propyl-1H-pyrazolo[4,3-d]pyrimidin-7-yl]-amine], the pIC50 was 5.05 in data set [1] and 4.90 in data set [3].
`Cc1nn(C)c2c(Nc3ccc(S(C)(=O)=O)cc3)nc(-c3ccc(F)cc3)nc12` [E 96, [5-(4-fluoro-phenyl)-1,3-dimethyl-1H-pyrazolo[4,3-d]pyrimidin-7-yl]-(4-methanesulfonyl-phenyl)-amine] displayed a melting point of 216 to 218 °C. The pIC50 in data set [2] is 5.86.
`Cc1nn(C)c2cc(-c3ccc(F)cc3)nc(-c3ccc(S(C)(=O)=O)cc3)c12` [E 98, 6-(4-fluoro-phenyl)-4-(4-methanesulfonyl-phenyl)-1,3-dimethyl-1H-pyrazolo[4,3-c]pyridine]: the melting point lay in the range of 228 to 230 °C.
Still for that read-out and setting: the value for `Cc1nn(C)c2c(F)nc(-c3ccccc3)nc12` [E 99, 7-fluoro-1,3-dimethyl-5-phenyl-1H-pyrazolo[4,3-d]pyrimidine] was 110 to 112 °C.
Regarding `Cc1nn(C)c2cc(-c3ccc(F)cc3)nc(Nc3ccc(S(C)(=O)=O)cc3)c12` [E 100, [6-(4-fluoro-phenyl)-1,3-dimethyl-1H-pyrazolo[4,3-c]pyridin-4-yl]-(4-methanesulfonyl-phenyl)-amine], in data set [1] (Homo sapiens, Endothelial cell), the pIC50 was 6.32.
As for `Cc1nn(C)c2c(-c3ccc(OC(F)(F)F)cc3)nc(-c3ccc(F)cc3)nc12` [E 101, 5-(4-fluoro-phenyl)-1,3-dimethyl-7-(4-trifluoromethoxy-phenyl)-1H-pyrazolo[4,3-d]pyrimidine], the melting point fell in the range of 170 to 172 °C.
Same read-out and setting: with `Cc1nn(C)c2c(N(C)C)nc(-c3ccccc3)nc12` [E 102, (1,3-dimethyl-5-phenyl-1H-pyrazolo[4,3-d]pyrimidin-7-yl)-dimethyl-amine] the figure was 86 to 88 °C.
